≈ marks a conversion by molar mass, not a printed value. Where “and” joins values, the source holds several entries; their conditions need not be identical. Equal values may be shown once. Read-outs that look alike come from different tables or passages of the source.
How the values were obtained:
E. coli W3110 [1] = assay: MIC, broth microdilution method of the Clinical and Laboratory Standards Institute; assay type: cell-based; conditions: Escherichia coli, read-out: minimum inhibitory concentration (MIC)
E. coli W3110 [2] = assay: E. coli W3110 pure culture, CFU/ml and dose-response; assay type: cell-based
luciferase transcript [3] = assay: Western blot of luciferase protein normalized to OmpA in peritoneal lavage bacteria; assay type: in vivo, firefly; set-up: Western Blot % Inhibition (luciferase protein): concentration or dose not given beside the values; conditions: for Western Blot % Inhibition (luciferase protein): compared to nonsense PMO-treated mice; for Western Blot Luc/OmpA Mean: n = 7-8
[4] = test system: E. coli AS19 (pT7myc-luc); assay type: in vivo; conditions: mice; for CFU/ml (×10^6): peritoneal lavage
luciferase transcript [5] = test system: luciferase transcript; set-up: species or system firefly; conditions: in vivo
E. coli AS19 = assay type: cell-based

Row | Molecule | MIC (E. coli W3110 [1]) | antibacterial activity (CFU/ml after 8 hours) (E. coli W3110 [2]; E. coli W3110 (FIG. 13)) | IC50 (E. coli W3110 [2]; Escherichia coli, E. coli W3110 pure culture (FIG. 14), read-out: IC50 (50% inhibitory concentration)) | Western Blot % Inhibition (luciferase protein) (luciferase transcript [3]; 13 h) | Western Blot Luc/OmpA Mean (luciferase transcript [3]; 13 h after treatment) | Western Blot % Inhibition (luciferase protein) (luciferase transcript [3]; 22 h) | Western Blot % Inhibition (luciferase protein) (luciferase transcript [3]; 22 h, listed as luc PMO) | Western Blot Luc/OmpA Mean (luciferase transcript [3]; 22 h after treatment) | CFU/ml (×10^6) ([4]; 13 h after treatment) | CFU/ml (×10^6) ([4]; 22 h after treatment) | inhibition of growth compared to nonsense PMO treatment ([4]; treated at 0 and 13 hours post-infection) | Luciferase Activity % Inhibition (luciferase transcript [5]) | Luciferase Activity RLU/CFU Mean (luciferase transcript [5]) | growth monitored by optical density (E. coli AS19) | viable cells (CFU/ml) (E. coli AS19)
1 | CC1(C)S[C@@H]2[C@H](NC(=O)[C@H](N)c3ccccc3)C(=O)N2[C@H]1C(=O)O [ampicillin] | 10 µM (≈ 3.49 µg/mL) | showed antibacterial activity | 7.7 µM |  |  |  |  |  |  |  |  |  |  |  | 
2 | Luc: PMO complementary to the region around the start codon of the luciferase transcript, ACG TTG AGG C, SEQ ID NO 77 (antisense ACGTTGAGGC; all phosphorodiamidate morpholino (PMO)) |  |  |  | 68% | 0.122 | 57% | 47% | 0.147 | 6.3 ×10^6 CFU/ml | 0.96 ×10^6 CFU/ml | no inhibition of growth | 53% and 46% | 3.20 RLU/CFU and 2.90 RLU/CFU |  | 
3 | Nonsense: nonsense PMO control for luc PMO, TCC ACT TGC C, SEQ ID NO 78 (TCCACTTGCC; all phosphorodiamidate morpholino (PMO)) [reference compound] |  |  |  | 0% | 0.382 | 0% |  | 0.339 | 4.3 ×10^6 CFU/ml | 0.39 ×10^6 CFU/ml |  |  | 6.19 RLU/CFU and 8.12* RLU/CFU |  | 
4 | PMO 62-4: acpP-14mer PMO, TC GAT AGT GCT CAT, SEQ ID NO 65 (antisense TCGATAGTGCTCAT; all phosphorodiamidate morpholino (PMO)) |  |  |  |  |  |  |  |  |  |  |  |  |  | statistically insignificant inhibitions | significantly reduced
